The values below are quoted from earlier work in patent US9050475B2, “High SPF sunscreen compositions” (MD SOLARSCIENCES CORP., priority 2010, dated 2015).

Molecules are shown by their SMILES.

The conditions of this data set: known UV-A or UV-B protection properties of FDA-approved sunscreens.
As to `CCOCCOC(=O)C=Cc1ccc(OC)cc1` [Cinoxate, 2-ethoxyethylp-methoxycinnamate], the “Range Covered” value was “UV-B (UV-B: 290-320 nm)”. Regarding `CC1CC(OC(=O)c2ccccc2O)CC(C)(C)C1` (stereo not shown) [Homosalate], the “Range Covered” value is reported as “UV-B (UV-B: 290-320 nm)”. On to `CCCCC(CC)COC(=O)c1ccccc1O` (stereo not shown) [Octisalate, 2-ethylhexyl salicylate], for which the “Range Covered” value was “UV-B (UV-B: 290-320 nm)”. Turning to `CCCCC(CC)COC(=O)C(C#N)=C(c1ccccc1)c1ccccc1` (stereo not shown) [Octocrylene, 2-ethylhexyl-2-cyano-3.3 diphenylacrylate], the “Range Covered” value was “UV-B (UV-B: 290-320 nm)”. With `COc1ccc(C(=O)c2ccccc2)c(O)c1` [Oxybenzone], the “Range Covered” value is recorded as “UV-B, UV-A2”.

Turning to `CCCCC(CC)COC(=O)c1ccc(N(C)C)cc1` (stereo not shown) [Padimate O, octyl dimethyl PABA], the “Range Covered” value is reported as “UV-B (UV-B: 290-320 nm)”. Regarding `COc1cc(O)c(C(=O)c2ccccc2)cc1S(=O)(=O)O` [Sulisobenzone], the “Range Covered” value is given as “UV-B, UV-A2”.
